Legend:
Type in all cases: biochemical
Conditions in all cases: HeLa S3 lysate, sfGFP/mCherry ratio, 2 hrs at 30° C.
[1] = test system: MYC; test: In vitro transcription-translation (IVTT) assay, MYC reporter
Summary of the method: (§1)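 Reporter: mCherry, P2A, then 3×FLAG-target peptide-sfGFP fusion, IRES-initiated; HeLa S3 lysate IVTT; cpd dilutions 30 μM−0.1 μM half-log in 100% DMSO (dilution-plate conc); DNA added last; 2 h, 30° C; PBS quench.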

[2] = test system: ALK; test: In vitro transcription-translation (IVTT) assay, ALK reporter
Summary of the method: as §1

[3] = test system: CCND1; test: In vitro transcription-translation (IVTT) assay, CCND1 reporter
Summary of the method: as §1

[4] = test system: KRAS G12D; test: In vitro transcription-translation (IVTT) assay, KRAS G12D reporter
Summary of the method: as §1

SMILES	IC50 [1]	IC50 [2]	IC50 [3]	IC50 [4]
COc1ccc(C[C@H]2NC[C@H](O)[C@H]2OC(=O)NCc2ncc[nH]2)cc1 [V187815, (2R,3S,4S)-4-hydroxy-2-[(4-methoxyphenyl)methyl]pyrrolidin-3-yl N-(1H-imidazol-2-ylmethyl)carbamate]	< 10 µM	< 10 µM	10 to 20 µM	20 to 30 µM
COc1ccc(C[C@H]2NC[C@H](O)[C@H]2OC(=O)NCCc2ncc(C)[nH]2)cc1 [V187818, (2R,3S,4S)-4-hydroxy-2-[(4-methoxyphenyl)methyl]pyrrolidin-3-yl N-[2-(4-methyl-3H-imidazol-2-yl)ethyl]carbamate]	20 to 30 µM	< 10 µM	> 30 µM	> 30 µM
C#CCNC(=O)O[C@@H]1[C@@H](O)CN[C@@H]1Cc1ccc(OC)cc1 [V0074, (2R,3S,4S)-4-hydroxy-2-[(4-methoxyphenyl)methyl]pyrrolidin-3-yl N-(prop-2-yn-1-yl)carbamate]	< 10 µM	< 10 µM	< 10 µM	< 10 µM
CCCCN(CCCC)CCNC(=O)O[C@@H]1[C@@H](O)CN[C@@H]1Cc1ccc(OC)cc1 [V187382, (2R,3S,4S)-4-hydroxy-2-[(4-methoxyphenyl)methyl]pyrrolidin-3-yl N-[2-(dibutylamino)ethyl]carbamate]	> 30 µM	> 30 µM	–	> 30 µM
COc1ccc(C[C@H]2NC[C@H](O)[C@H]2OC(=O)NCCN2C(=O)CNC2=O)cc1 [V187659, (2R,3S,4S)-4-hydroxy-2-[(4-methoxyphenyl)methyl]pyrrolidin-3-yl N-[2-(2,5-dioxoimidazolidin-1-yl)ethyl]carbamate; trifluoroacetic acid]	20 to 30 µM	< 10 µM	–	> 30 µM
CCCCN(CCCC)CCCNC(=O)O[C@@H]1[C@@H](O)CN[C@@H]1Cc1ccc(OC)cc1 [V187386, (2R,3S,4S)-4-hydroxy-2-[(4-methoxyphenyl)methyl]pyrrolidin-3-yl N-[3-(dibutylamino)propyl]carbamate]	> 30 µM	> 30 µM	–	> 30 µM
COc1ccc(C[C@H]2NC[C@H](O)[C@H]2OC(=O)NCCN(C(C)C)C(C)C)cc1 [V187436, (2R,3S,4S)-4-hydroxy-2-[(4-methoxyphenyl)methyl]pyrrolidin-3-yl N-[2-(diisopropylamino)ethyl]carbamate]	> 30 µM	> 30 µM	–	> 30 µM
COc1ccc(C[C@H]2NC[C@H](O)[C@H]2OC(=O)Nc2n[nH]c(C)n2)cc1 [V187657, (2R,3S,4S)-4-hydroxy-2-[(4-methoxyphenyl)methyl]pyrrolidin-3-yl N-(5-methyl-1H-1,2,4-triazol-3-yl) carbamate]	10 to 20 µM	< 10 µM	–	20 to 30 µM
COc1ccc(C[C@H]2NC[C@H](O)[C@H]2OC(=O)NCCNc2c(N)c(=O)c2=O)cc1 [V187518, (2R,3S,4S)-4-hydroxy-2-[(4-methoxyphenyl)methyl]pyrrolidin-3-yl N-{2-[(2-amino-3,4-dioxocyclobut-1-en-1-yl)amino]ethyl}carbamate; trifluoroacetic acid]	> 30 µM	10 to 20 µM	–	> 30 µM
COc1ccc(C[C@H]2NC[C@H](O)[C@H]2OC(=O)NNC(=O)Cc2ccccc2)cc1 [V187741, N′-({[(2R,3S,4S)-4-hydroxy-2-[(4-methoxyphenyl)methyl]pyrrolidin-3-yl]oxy}carbonyl)-2-phenylacetohydrazide; trifluoroacetic acid]	< 10 µM	< 10 µM	–	10 to 20 µM
COc1ccc(C[C@H]2NC[C@H](O)[C@H]2OC(=O)NCCOCCn2ccnc2)cc1 [V187628, (2R,3S,4S)-4-hydroxy-2-[(4-methoxyphenyl)methyl]pyrrolidin-3-yl N-{2-[2-(imidazol-1-yl)ethoxy]ethyl}carbamate; trifluoroacetic acid]	< 10 µM	< 10 µM	–	10 to 20 µM
COc1ccc(C[C@H]2NC[C@H](O)[C@H]2OC(=O)NCC[C@H]2CNCCN2Cc2ccccc2)cc1 [V187568, (2R,3S,4S)-4-hydroxy-2-[(4-methoxyphenyl)methyl]pyrrolidin-3-yl N-{2-[(2S)-1-benzylpiperazin-2-yl]ethyl}carbamate]	> 30 µM	20 to 30 µM	–	> 30 µM
COc1ccc(C[C@H]2NC[C@H](O)[C@H]2OC(=O)NCCN2CCC3(CNC3)C2)cc1 [V187644, (2R,3S,4S)-4-hydroxy-2-[(4-methoxyphenyl)methyl]pyrrolidin-3-yl N-(2-{2,6-diazaspiro[3.4]octan-6-yl}ethyl)carbamate; trifluoroacetic acid]	> 30 µM	20 to 30 µM	–	> 30 µM
COc1ccc(C[C@H]2NC[C@H](O)[C@H]2OC(=O)NCCN2CC(O)C(F)(F)C2)cc1 (stereo partly drawn) [V187620]	10 to 20 µM	< 10 µM	–	20 to 30 µM
COc1ccc(C[C@H]2NC[C@H](O)[C@H]2OC(=O)NCCN2CC(N)C2)cc1 [V187624, (2R,3S,4S)-4-hydroxy-2-[(4-methoxyphenyl)methyl]pyrrolidin-3-yl N-[2-(3-aminoazetidin-1-yl)ethyl]carbamate]	> 30 µM	< 10 µM	–	> 30 µM
COc1ccc(C[C@H]2NC[C@H](O)[C@H]2OC(=O)NCC2CCSCC2)cc1 [V187516, (2R,3S,4S)-4-hydroxy-2-[(4-methoxyphenyl)methyl]pyrrolidin-3-yl N-(thian-4-ylmethyl) carbamate]	< 10 µM	< 10 µM	–	10 to 20 µM
COc1ccc(C[C@H]2NC[C@H](O)[C@H]2OC(=O)NC[C@@H]2CCCN2)cc1 [V187684, (2R,3S,4S)-4-hydroxy-2-[(4-methoxyphenyl)methyl]pyrrolidin-3-yl N-[(2S)-pyrrolidin-2-ylmethyl]carbamate; trifluoroacetic acid]	20 to 30 µM	> 30 µM	–	> 30 µM
COc1ccc(C[C@H]2NC[C@H](O)[C@H]2OC(=O)NCCN2CCC2)cc1 [V187566, (2R,3S,4S)-4-hydroxy-2-[(4-methoxyphenyl)methyl]pyrrolidin-3-yl N-[2-(azetidin-1-yl)ethyl]carbamate; trifluoroacetic acid]	> 30 µM	10 to 20 µM	–	> 30 µM
COc1ccc(C[C@H]2NC[C@H](O)[C@H]2OC(=O)NC2CNC2)cc1 [V187679, (2R,3S,4S)-4-hydroxy-2-(4-methoxybenzyl)pyrrolidin-3-yl azetidin-3-ylcarbamate]	> 30 µM	10 to 20 µM	–	> 30 µM
COc1ccc(C[C@H]2NC[C@H](O)[C@H]2OC(=O)NC[C@@H]2NC(=O)CNC2=O)cc1 [V187381, (2R,3S,4S)-4-hydroxy-2-[(4-methoxyphenyl)methyl]pyrrolidin-3-yl N-{[(2S)-3,6-dioxopiperazin-2-yl]methyl}carbamate]	> 30 µM	> 30 µM	–	> 30 µM
COc1ccc(C[C@H]2NC[C@H](O)[C@H]2OC(=O)NCCN2C[C@@H](O)[C@H](O)C2)cc1 [V187577, (2R,3S,4S)-4-hydroxy-2-[(4-methoxyphenyl)methyl]pyrrolidin-3-yl N-{2-[(3R,4R)-3,4-dihydroxypyrrolidin-1-yl]ethyl}carbamate]	> 30 µM	< 10 µM	–	10 to 20 µM

Source: patent US20250129021A1, “SMALL MOLECULE PROTEIN SYNTHESIS MODULATORS” (Interdict Bio, Inc., priority 2023, published 2025)
